Patent US10118935B2, “Melampomagnolide B dimers” (priority 2014, dated 2018)
Read-outs that look alike come from different tables or passages of the source.

Key:
IGROV1 = assay: NCI 60 cell line five dose, Ovarian Cancer; format: cell-based, human
HOP-62 = assay: NCI 60 cell line five dose, Non-Small Cell Lung Cancer; format: cell-based, human; details: for CC50: read-out: LC50 (the source's name)

C=C1C(=O)O[C@H]2[C@H]1CC/C(COC(=O)CCC(=O)NCCCCCCCCCNC(=O)CCC(=O)OC/C1=C/CC[C@@]3(C)O[C@H]3[C@H]3OC(=O)C(=C)[C@@H]3CC1)=C\CC[C@@]1(C)O[C@@H]21 [JVM 2-92, bis(((1aR,7aS,10aS,10bS,E)-1a-Methyl-8-methylene-9-oxo-1a,2,3,6,7,7a,8,9,10a,10b-decahydrooxireno[2′,3′:9,10]cyclodeca[1,2-b]furan-5-yl)methyl)4,4′-(nonane-1,9-diylbis(azanediyl))bis (4-oxobutanoate)]
CC50 (HT29): 5.69 µM | CC50 (PC-3): 29.6 µM | CC50 (OVCAR-5): 7.06 µM | CC50 (K-562): > 100 µM | CC50 (NCI-H226): 8.6 µM | CC50 (HOP-92): 6.64 µM | CC50 (SR): > 100 µM | CC50 (OVCAR-3): 5.3 µM | CC50 (SNB-75): 15.6 µM | CC50 (T-47D): > 100 µM | CC50 (BT-549): 4.65 µM | CC50 (A549/ATCC): 82.6 µM | CC50 (SF-539): 9.95 µM | CC50 (RPMI-8226): > 100 µM | CC50 (MDA-MB-231/ATCC): 13.3 µM | CC50 (SN12C): 49.7 µM | CC50 (NCI-H23): 18.5 µM | CC50 (MDA-MB-435): 7.25 µM | CC50 (SF-268): 42.4 µM | CC50 (OVCAR-8): > 100 µM | CC50 (CAKI-1): 49.9 µM | CC50 (LOX IMVI): 4.06 µM | CC50 (SK-MEL-28): 6.22 µM | CC50 (M14): 8.05 µM | CC50 (SK-MEL-2): 8.13 µM | CC50 (DU-145): 5.78 µM | CC50 (NCI-H522): 5.63 µM

C=C1C(=O)O[C@H]2[C@H]1CC/C(COC(=O)NCCCCNC(=O)OC/C1=C/CC[C@@]3(C)O[C@H]3[C@H]3OC(=O)C(=C)[C@@H]3CC1)=C\CC[C@@]1(C)O[C@@H]21 [JVM 3-54, bis(((1aR,7aS,10aS,10bS,E)-1a-Methyl-8-methylene-9-oxo-1a,2,3,6,7,7a,8,9,10a,10b-decahydrooxireno[2′,3′:9,10]cyclodeca[1,2-b]furan-5-yl)methyl)butane-1,4-diyldicarbamate]
GI50 (IGROV1): 3.32 µM | TGI (IGROV1): 1.24e-05 M | Percent Growth (IGROV1; Log10 Concentration −4.0): −76% | Percent Growth (IGROV1; Log10 Concentration −5.0): 8% | Percent Growth (IGROV1; Log10 Concentration −6.0): 96% | Percent Growth (IGROV1; Log10 Concentration −7.0): 104% | Percent Growth (IGROV1; Log10 Concentration −8.0): 101% | CC50 (IGROV1; read-out: LC50 (the source's name)): 48.6 µM | GI50 (HOP-62): 3.84 µM | TGI (HOP-62): 1.4e-05 M | Percent Growth (HOP-62; Log10 Concentration −4.0): −82% | Percent Growth (HOP-62; Log10 Concentration −5.0): 14% | Percent Growth (HOP-62; Log10 Concentration −6.0): 101% | Percent Growth (HOP-62; Log10 Concentration −7.0): 95% | Percent Growth (HOP-62; Log10 Concentration −8.0): 94% | CC50 (HOP-62): 46.1 µM

C=C1C(=O)O[C@H]2[C@H]1CC/C(COC(=O)CCC(=O)NCCCCCCCCNC(=O)CCC(=O)OC/C1=C/CC[C@@]3(C)O[C@H]3[C@H]3OC(=O)C(=C)[C@@H]3CC1)=C\CC[C@@]1(C)O[C@@H]21 [JVM 2-87, bis(((1aR,7aS,10aS,10bS,E)-1a-Methyl-8-methylene-9-oxo-1a,2,3,6,7,7a,8,9,10a,1b-decahydrooxireno[2′,3′:9,10]cyclodeca[1,2-b]furan-5-yl)methyl)4,4′-(octane-1,8-diylbis(azanediyl))bis(4-oxobutanoate)]
CC50 (HT29): 5.92 µM | CC50 (OVCAR-5): 7.31 µM | CC50 (K-562): > 100 µM | CC50 (NCI-H226): 15.7 µM | CC50 (HOP-92): 6.77 µM | CC50 (SR): > 100 µM | CC50 (OVCAR-3): 5.31 µM | CC50 (SNB-75): 26.9 µM | CC50 (BT-549): 5.12 µM | CC50 (A549/ATCC): 89.4 µM | CC50 (SF-539): 20.9 µM | CC50 (RPMI-8226): > 100 µM | CC50 (MDA-MB-231/ATCC): 9.88 µM | CC50 (SN12C): 53.8 µM | CC50 (NCI-H23): 42.6 µM | CC50 (MDA-MB-435): 7.58 µM | CC50 (SF-268): 42.4 µM | CC50 (OVCAR-8): > 100 µM | CC50 (CAKI-1): 80.3 µM | CC50 (LOX IMVI): 5.56 µM | CC50 (SK-MEL-28): 6.32 µM | CC50 (M14): 8.02 µM | CC50 (SK-MEL-2): 9.38 µM | CC50 (DU-145): 6.81 µM | CC50 (NCI-H522): 6.36 µM

C=C1C(=O)O[C@H]2[C@H]1CC/C(COC(=O)NCCCCCCCCNC(=O)OC/C1=C/CC[C@@]3(C)O[C@H]3[C@H]3OC(=O)C(=C)[C@@H]3CC1)=C\CC[C@@]1(C)O[C@@H]21 [JVM 3-62, bis(((1aR,7aS, 10aS, 10bS, E)-1a-Methyl-8-methylene-9-oxo-1a,2,3,6,7,7a,8,9,10a,10b-decahydrooxireno[2′,3′:9,10]cyclodeca[1,2-b]furan-5-yl)methyl)octane-1,8-diyldicarbamate]
Percent Growth (IGROV1; Log10 Concentration −4.0): −71% | Percent Growth (IGROV1; Log10 Concentration −5.0): −71% | Percent Growth (IGROV1; Log10 Concentration −6.0): 61% | Percent Growth (IGROV1; Log10 Concentration −7.0): 102% | Percent Growth (IGROV1; Log10 Concentration −8.0): 105% | GI50 (IGROV1; molar): 1.01 µM | TGI (IGROV1; molar): 2.61E−6 | Percent Growth (HOP-62; Log10 Concentration −4.0): −80% | Percent Growth (HOP-62; Log10 Concentration −5.0): −64% | Percent Growth (HOP-62; Log10 Concentration −6.0): 76% | Percent Growth (HOP-62; Log10 Concentration −7.0): 103% | Percent Growth (HOP-62; Log10 Concentration −8.0): 103% | GI50 (HOP-62; molar): 1.53 µM | TGI (HOP-62; molar): 3.49E−6 | CC50 (HOP-62; molar): 7.95 µM
